In one experiment the target is T1, Beta-secretase 2 (Homo sapiens, UniProt Q9Y5Z0).
T1 sequence (Q9Y5Z0 whole entry): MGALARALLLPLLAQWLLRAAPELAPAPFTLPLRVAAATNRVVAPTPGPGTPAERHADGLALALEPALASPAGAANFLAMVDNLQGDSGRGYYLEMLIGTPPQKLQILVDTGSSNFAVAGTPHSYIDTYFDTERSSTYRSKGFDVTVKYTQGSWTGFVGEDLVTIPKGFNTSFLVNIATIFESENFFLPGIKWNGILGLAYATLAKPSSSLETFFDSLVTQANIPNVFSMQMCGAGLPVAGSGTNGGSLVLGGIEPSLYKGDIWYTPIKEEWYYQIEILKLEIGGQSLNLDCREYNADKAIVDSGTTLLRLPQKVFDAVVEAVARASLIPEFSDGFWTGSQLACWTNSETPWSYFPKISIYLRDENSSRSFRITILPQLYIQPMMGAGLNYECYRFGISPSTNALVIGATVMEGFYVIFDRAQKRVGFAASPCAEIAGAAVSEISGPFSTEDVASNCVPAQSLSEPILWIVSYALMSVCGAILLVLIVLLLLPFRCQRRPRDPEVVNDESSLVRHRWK
Briefly: (§1) Inhibition of BACE2.

The target in the next experiment is T2, Renin (Homo sapiens, UniProt P00797).
T2 sequence (P00797 whole entry): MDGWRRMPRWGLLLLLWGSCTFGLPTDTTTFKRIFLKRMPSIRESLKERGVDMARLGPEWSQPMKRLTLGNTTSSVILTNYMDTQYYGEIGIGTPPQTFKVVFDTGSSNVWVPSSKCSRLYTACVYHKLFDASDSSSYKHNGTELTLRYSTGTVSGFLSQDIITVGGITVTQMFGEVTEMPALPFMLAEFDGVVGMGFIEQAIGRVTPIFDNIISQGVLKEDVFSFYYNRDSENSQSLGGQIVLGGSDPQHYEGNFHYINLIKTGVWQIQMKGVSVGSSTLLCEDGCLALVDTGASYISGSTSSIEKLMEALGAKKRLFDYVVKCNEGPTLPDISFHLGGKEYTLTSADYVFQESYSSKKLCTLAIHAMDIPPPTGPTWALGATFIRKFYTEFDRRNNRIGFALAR
Briefly: Inhibition of renin.

For experiment [1], the target named is T3, Beta-secretase 1 (Homo sapiens, UniProt P56817).
T3 sequence (P56817 whole entry): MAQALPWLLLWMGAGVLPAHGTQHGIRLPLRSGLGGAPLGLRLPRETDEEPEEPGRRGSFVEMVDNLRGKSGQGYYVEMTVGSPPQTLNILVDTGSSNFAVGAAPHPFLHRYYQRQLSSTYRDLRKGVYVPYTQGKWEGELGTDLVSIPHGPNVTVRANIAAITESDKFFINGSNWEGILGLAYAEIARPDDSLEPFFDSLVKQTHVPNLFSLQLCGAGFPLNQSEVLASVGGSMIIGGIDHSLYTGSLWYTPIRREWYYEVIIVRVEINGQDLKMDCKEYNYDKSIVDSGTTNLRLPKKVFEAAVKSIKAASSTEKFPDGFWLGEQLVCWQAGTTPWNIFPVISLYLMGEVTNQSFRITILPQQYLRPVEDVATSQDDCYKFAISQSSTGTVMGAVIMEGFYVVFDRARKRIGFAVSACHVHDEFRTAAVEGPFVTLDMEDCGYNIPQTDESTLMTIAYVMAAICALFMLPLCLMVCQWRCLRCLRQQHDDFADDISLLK
In experiment [2] the target is T3, Beta-secretase 1. This is another data set of the same source.
The target of experiment [3] is T4, Beta-secretase 2 (Homo sapiens) (UniProt Q9Y5Z0).
T4 sequence (whole entry): T1 sequence (Q9Y5Z0 whole entry)
The description is as §1.

SMILES strings stand for the structures. Active and inactive are the calls of the source. The calls are words filed in the database; no cut-off is given here.

One may read the IC50 as the concentration at which inhibition is half-maximal. Lower therefore signals greater potency. Consider `CC(C)S(=O)(=O)N(C)c1cc(C(=O)N[C@@H](Cc2ccccc2)[C@H](O)CNC2CC2)cc(C(=O)N[C@H](C)c2ccccc2)c1`, for which the IC50 is 360 nM against Beta-secretase 2, over 50000 nM at Renin, 41 nM on Beta-secretase 1 [1] and 25 nM at Beta-secretase 1 [2].
The matching figures for `C[C@@H](NC(=O)c1cc(NS(C)(=O)=O)cc(C(=O)N[C@@H](Cc2ccccc2)C(O)CNC2CC2)c1)c1ccc(F)cc1` (some centres undefined): 210 nM, over 50000 nM, 63 nM and 1180 nM.
Turning to `C[C@@H](NC(=O)c1cc(C(=O)N[C@@H](Cc2ccccc2)C(O)CNC2CC2)cc(N(C)S(C)(=O)=O)c1)c1ccccc1` (some centres undefined), the IC50 against Renin is over 50000 nM.
Consider `C[C@@H](NC(=O)c1cc(C(=O)N[C@@H](Cc2ccccc2)[C@H](O)CNC2CC2)cc(N(C)S(=O)(=O)N(C)C)c1)c1ccccc1`, for which the IC50 against Beta-secretase 2 was 110 nM; against Renin, over 50000 nM; against Beta-secretase 1 [1] it was 14 nM; at Beta-secretase 1 [2], 9 nM.
The matching figures for `C[C@@H](NC(=O)c1cc(C(=O)N[C@@H](Cc2ccccc2)[C@H](O)CN)cc(N(C)S(C)(=O)=O)c1)c1ccc(F)cc1`: 443 nM, over 50000 nM, 23 nM and 5390 nM.
The matching figures for `CCNC[C@@H](O)[C@H](Cc1ccccc1)NC(=O)c1cc(C(=O)N[C@H](C)c2ccc(F)cc2)cc(N(C)S(C)(=O)=O)c1`: 260 nM, over 50000 nM, 15 nM and 396 nM.
Take `C[C@@H](NC(=O)c1cc(C(=O)N[C@@H](Cc2ccccc2)[C@H](O)CNC(C)(C)C)cc(N(C)S(C)(=O)=O)c1)c1ccc(F)cc1`: the result in experiment [3] was inactive. Moreover, the IC50 on Renin was over 50000 nM; against Beta-secretase 1 [1] it was 15 nM; against Beta-secretase 1 [2], 2120 nM.
For the compound `C[C@@H](NC(=O)c1cc(C(=O)N[C@@H](Cc2ccccc2)[C@H](O)CNC2CC2)cc(N(C)S(C)(=O)=O)c1)c1ccc(F)cc1`, the IC50 against Beta-secretase 2 is 69 nM; against Renin, over 10000 nM; on Beta-secretase 1 [1], 10 nM; on Beta-secretase 1 [2] it was 19 nM.

The values are drawn from ChEMBL document CHEMBL1149268, “Structure-based design of potent and selective cell-permeable inhibitors of human beta-secretase (BACE-1)” (J Med Chem, 2004).
